Legend:
[1] = target: T1, human SIRT1 (Homo sapiens, UniProt Q96EB6); assay: Fluorescence-based sirtuin subtype selectivity assay, SIRT1, single dose 50 μM; assay type: biochemical; conditions: 50 μM compound; mean, n = 2
T1 construct: purchased Reaction Biology Corporation (Malvern, USA), contract assay
T1 sequence (Q96EB6 1-747): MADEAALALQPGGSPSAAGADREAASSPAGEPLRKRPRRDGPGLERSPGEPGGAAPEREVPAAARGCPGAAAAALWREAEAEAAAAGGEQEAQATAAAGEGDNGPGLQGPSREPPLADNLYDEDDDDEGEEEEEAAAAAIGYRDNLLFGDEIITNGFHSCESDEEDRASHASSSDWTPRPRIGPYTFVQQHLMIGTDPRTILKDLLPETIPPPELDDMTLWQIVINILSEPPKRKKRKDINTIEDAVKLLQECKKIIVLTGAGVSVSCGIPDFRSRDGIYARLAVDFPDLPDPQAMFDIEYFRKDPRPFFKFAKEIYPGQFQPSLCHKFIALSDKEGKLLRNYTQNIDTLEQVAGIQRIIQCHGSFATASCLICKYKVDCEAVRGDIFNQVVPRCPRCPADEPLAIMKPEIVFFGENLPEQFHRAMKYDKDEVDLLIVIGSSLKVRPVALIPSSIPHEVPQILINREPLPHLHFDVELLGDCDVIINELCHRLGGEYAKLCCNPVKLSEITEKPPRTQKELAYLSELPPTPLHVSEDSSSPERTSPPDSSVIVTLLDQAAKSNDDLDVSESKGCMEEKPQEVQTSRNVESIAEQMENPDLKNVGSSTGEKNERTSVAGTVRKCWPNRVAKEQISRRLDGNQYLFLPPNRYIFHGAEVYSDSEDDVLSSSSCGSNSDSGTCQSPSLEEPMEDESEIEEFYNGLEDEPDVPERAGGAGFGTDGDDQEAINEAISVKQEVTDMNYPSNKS
Description: (§1) IC50 values against SIRT2 are given as mean with standard deviations (n = 3). Inhibition percentages at 50 μM for SIRT1, 3 and 5 are given as mean without standard deviations (n = 2)
(§2) The determination of subtype selectivity against SIRT1, 3 and 5 was performed by measuring the residual enzyme activity after treatment with the corresponding inhibitor at a fixed concentration of 50 μM and subsequent calculation of the percentage inhibition.
(§3) The determination of inhibitory activity on the corresponding sirtuin enzymes was carried out based on a fluorescence-based assay commissioned by Reaction Biology Corporation (Malvern, USA) following an internal experimental protocol. Test substances were prepared in DMSO, delivered into the respective enzyme mixture (prepared with reaction buffer: Tris-HCl, pH = 8) and incubated for 10 minutes at 30 °C. Subsequently the substrate mixture (NAD^+ and a 7-amino-4-methylcoumarin-based fluorogenic peptide substrate) was added to initiate the deacetylation reaction. After 2 hours incubation at 30 °C, 2 mM nicotinamide (universal sirtuin inhibitor, to stop the reaction) and protease-based developer (to generate fluorescence by the cleavage of 7-amino-4-methylcoumarin) was added. At 30 °C 1 hour later, the respective fluorescence was measured (extinction/emission = 360 nm/460 nm). The inhibitory effect of the test compounds is indirectly proportional to the amount of converted fluorescent substrate standardized as 100% activity of the control without inhibitor. The test substances were tested in 10-dose IC50 triplicate mode, with 3-fold serial dilution starting at 50 μM final reaction concentration and if necessary, starting at 100 μM. For each serially diluted replicate of the triplicate, an IC50 value was determined by sigmoidal curve fitting, resulting in three IC50 values, from which the mean and corresponding standard deviation were subsequently calculated. Data processing was performed based on Prism 8.0.2 software (GraphPad Software, Boston, USA). Subtype selectivity on SIRT1, SIRT3 and SIRT5 was evaluated in a single dose duplicate mode at 50 μM final test compound concentration according to previous outlined internal protocol of Reaction Biology Corporation by determining the enzyme activity of the respective sirtuins in % (no inhibitor control as 100% activity).

[2] = target: T2, SIRT2 (Homo sapiens, UniProt Q8IXJ6); assay: Fluorescence-based SIRT2 deacetylation inhibition assay (Reaction Biology Corporation); assay type: biochemical; parameters: purchased Reaction Biology Corporation (Malvern, USA), contract assay
T2 sequence (Q8IXJ6 1-389): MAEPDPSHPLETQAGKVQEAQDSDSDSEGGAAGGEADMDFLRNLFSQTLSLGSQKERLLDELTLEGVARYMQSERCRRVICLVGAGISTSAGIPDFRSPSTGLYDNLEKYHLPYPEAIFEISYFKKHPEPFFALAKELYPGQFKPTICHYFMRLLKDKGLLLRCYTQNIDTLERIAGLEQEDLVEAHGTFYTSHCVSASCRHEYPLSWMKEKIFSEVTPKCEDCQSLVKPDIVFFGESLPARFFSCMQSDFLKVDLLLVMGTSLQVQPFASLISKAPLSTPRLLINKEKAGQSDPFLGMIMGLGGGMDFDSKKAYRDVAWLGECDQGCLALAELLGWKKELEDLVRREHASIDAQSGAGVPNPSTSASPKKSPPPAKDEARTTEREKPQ
Description: The determination of SIRT2 inhibitory activity was performed by Reaction Biology Corporation (Malvern, USA) with a fluorescence-based assay utilizing the fluorogenic peptide of p53 residues 379–382 (RHKK(Ac)-Fl). […]. […] […]. On the contrary, we observed a significant increase in potency by the introduction of halogens at the R^2 position (compounds 29–31), highlighting the importance of the position of the functional group modifications. […]. […] Additional factors such as the atomic radius and thus steric requirements of these halogens may also play a significant role in the increase in potency, where the smaller chlorine atom may experience less steric effects upon binding at the active site compared to the larger bromine and iodine atoms. […]. […] IC50 values against SIRT2 are given as mean with standard deviations (n = 3). Inhibition percentages at 50 μM for SIRT1, 3 and 5 are given as mean without standard deviations (n = 2)
as §3

[3] = target: T2, SIRT2; assay: Fluorescence thermal shift assay of SIRT2
Description: The thermal stability of SIRT2 was determined in the presence of 10 μM and 30 μM inhibitor and in the presence and absence of 2.5 mM co-factor NAD^+.
All melting temperature shifts measured were referenced to the melting temperature of SIRT2 without inhibitor, also in the presence and absence of the co-factor.
Fluorescence thermal shift assays were performed in white 96-well plates (Hard-Shell PCR Plates, BioRad, USA) with a total volume of 20 μL per well and a final DMSO concentration of 5% (v/v), following a published protocol.[19,21] […] The compounds were prepared as 10 mM stock solutions in DMSO and diluted in the assay such that a final DMSO concentration of 5% (v/v) was achieved. If necessary, NAD^+ was added to a final concentration of 2.5 mM. […] Melting temperatures were determined using GraphPad Prism, following a published procedure.[52]

[4] = target: T3, human SIRT3 (Homo sapiens, UniProt Q9NTG7); assay: Fluorescence-based sirtuin subtype selectivity assay, SIRT3, single dose 50 μM; assay type: biochemical; conditions: 50 μM compound; mean, n = 2
T3 construct: purchased Reaction Biology Corporation (Malvern, USA), contract assay
T3 sequence (Q9NTG7 1-399): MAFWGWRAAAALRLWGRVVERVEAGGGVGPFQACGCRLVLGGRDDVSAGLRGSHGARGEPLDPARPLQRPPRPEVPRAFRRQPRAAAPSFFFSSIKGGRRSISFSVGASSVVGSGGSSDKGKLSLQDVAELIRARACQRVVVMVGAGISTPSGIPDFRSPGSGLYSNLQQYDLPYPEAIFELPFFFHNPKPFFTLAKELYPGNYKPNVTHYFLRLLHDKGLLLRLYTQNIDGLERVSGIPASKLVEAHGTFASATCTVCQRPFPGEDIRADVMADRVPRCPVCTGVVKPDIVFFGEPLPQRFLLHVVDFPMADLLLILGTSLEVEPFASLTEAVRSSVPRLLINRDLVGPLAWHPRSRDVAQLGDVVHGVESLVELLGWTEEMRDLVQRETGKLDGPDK
Description: as §1, §2, §3

inhibition at 50 µM [1]: 12%
Fold increase in SIRT2 potency compared to lead structure ([2]; 29 vs 24a, 46 vs SirReal2): 3 fold
IC50 ([2]; fluorogenic peptide of p53 residues 379–382 (RHKK(Ac)-Fl), mean with standard deviation, n = 3): 26 ± 2 nM
ΔTm at 30 µM ([3]; read-out: ΔT, increase in the melting temperature of SIRT2): 6.5 °C
inhibition at 50 µM [4]: 26%
SMILES: Cc1cc(C)nc(SCC(=O)Nc2cccc(COc3ccc(NC(=O)c4cnn(C)c4)c(Cl)c3)c2)n1 [Compound 29, N-(2-Chloro-4-((3-(2-((4,6-dimethylpyrimidin-2-yl)thio)acetamido)benzyl)oxy)phenyl)-1-methyl-1H-pyrazole-4-carboxamide]
NAD+ dependency of inhibitor-induced SIRT2 melting temperature increase ([3]; presence and absence of 2.5 mM NAD+): increases the melting temperature of SIRT2 independently of NAD^+
